{
  "source": "patent US20250360235A1",
  "about": "“RADI[…] AND METHOD FOR RADIOLABELLING” (Telix Innovations SA, priority 2024, published 2025)",
  "assay": "Radiochemical purity by iTLC over time after radiolabelling",
  "type": "physicochemical",
  "method": "Table 1 to Table 5 show the results of various radiolabelling experiments on radiochemical purity and the chelation yield. The radiolabelling experiments in the tables are carried out as described in: • Example 1 for when the gallium-68 source is GE Liquid target generator and EZAG GalliaPharm generator; • Example 2 for when the gallium-68 source is IRE Galli Eo generator; • Example 3 for when the gallium-68 source is GE solid target generator;\nHowever, the experiments were carried out with the amount of ascorbic acid as indicated in the Tables 1 to 5, and the activity as indicated in the Tables 1 to 5. Radiochemical purities were measured at various times (T0, T1, T4, T6) after the radiolabelled experiments have been conducted.\nThe kits of Example 1, Example 2 or Example 3, with amounts of ascorbic acid as set out in Table 7 were used in the experiments for the ascorbic acid bracketing matrix. Three strengths of [^68Ga]Ga-PSMA-11 will be tested, i.e. 50 mCi/ml, 7 mCi/ml and 1 mCi/ml. Radiochemical purity was determined at different time points (TO, T1, T4 or T6), as set out in Table 7.",
  "key": {"[1]": {"conditions": "1 mg ascorbic acid, 58.7-71.1 mCi, 7.47-8.99 mCi/mL, GE Liquid target, average of 3, T0"}, "[2]": {"conditions": "1 mg ascorbic acid, 58.7-71.1 mCi, 7.47-8.99 mCi/mL, GE Liquid target, average of 3, T4 (4 h)"}, "[3]": {"conditions": "1 mg ascorbic acid, 58.7-71.1 mCi, 7.47-8.99 mCi/mL, GE Liquid target, n=3, T0"}, "[4]": {"conditions": "1 mg ascorbic acid, 58.7-71.1 mCi, 7.47-8.99 mCi/mL, GE Liquid target, n=3, T4 (4 h)"}, "[5]": {"conditions": "2.5 mg ascorbic acid, 49.9-76.9 mCi, 6.31-9.72 mCi/mL, GE Liquid target, average of 3, T0"}, "[6]": {"conditions": "2.5 mg ascorbic acid, 49.9-76.9 mCi, 6.31-9.72 mCi/mL, GE Liquid target, average of 3, T4 (4 h)"}, "[7]": {"conditions": "2.5 mg ascorbic acid, 49.9-76.9 mCi, 6.31-9.72 mCi/mL, GE Liquid target, n=3, T0"}, "[8]": {"conditions": "2.5 mg ascorbic acid, 49.9-76.9 mCi, 6.31-9.72 mCi/mL, GE Liquid target, n=3, T4 (4 h)"}, "[9]": {"conditions": "5 mg ascorbic acid, 60-69.9 mCi, 7.61-8.81 mCi/mL, 3 × GE Liquid Target, 3 × EZAG GalliaPharm, average of 6, T0"}, "[10]": {"conditions": "5 mg ascorbic acid, 60-69.9 mCi, 7.61-8.81 mCi/mL, 3 × GE Liquid Target, 3 × EZAG GalliaPharm, average of 6, T4 (4 h)"}, "[11]": {"conditions": "5 mg ascorbic acid, 60-69.9 mCi, 7.61-8.81 mCi/mL, 3 × GE Liquid Target, 3 × EZAG GalliaPharm, n=6, T0"}, "[12]": {"conditions": "5 mg ascorbic acid, 60-69.9 mCi, 7.61-8.81 mCi/mL, 3 × GE Liquid Target, 3 × EZAG GalliaPharm, n=6, T4 (4 h)"}, "[13]": {"conditions": "10 mg ascorbic acid, 458-500 mCi, 43.4-47.3 mCi/mL, GE Solid Target, average of 3, T0"}, "[14]": {"conditions": "10 mg ascorbic acid, 458-500 mCi, 43.4-47.3 mCi/mL, GE Solid Target, average of 3, T4 (4 h)"}, "[15]": {"conditions": "10 mg ascorbic acid, 458-500 mCi, 43.4-47.3 mCi/mL, GE Solid Target, n=3, T0"}, "[16]": {"conditions": "10 mg ascorbic acid, 458-500 mCi, 43.4-47.3 mCi/mL, GE Solid Target, n=3, T4 (4 h)"}, "[17]": {"conditions": "10 mg ascorbic acid, 514-520 mCi, 49.0-66.1 mCi/mL, GE Solid Target, average of 3, T0"}, "[18]": {"conditions": "10 mg ascorbic acid, 514-520 mCi, 49.0-66.1 mCi/mL, GE Solid Target, average of 3, T6 (6 h)"}, "[19]": {"conditions": "10 mg ascorbic acid, 514-520 mCi, 49.0-66.1 mCi/mL, GE Solid Target, n=3, T0"}, "[20]": {"conditions": "10 mg ascorbic acid, 514-520 mCi, 49.0-66.1 mCi/mL, GE Solid Target, n=3, T6 (6 h)"}},
  "data": [
    {"smiles": "O=C([O-])CN(CCN(CC(=O)[O-])Cc1cc(CCC(=O)NCCCCCC(=O)NCCCC[C@H](NC(=O)N[C@@H](CCC(=O)O)C(=O)O)C(=O)O)ccc1[O-])Cc1cc(CCC(=O)O)ccc1[O-].[68Ga+3].[OH3+]", "note": "[[^68Ga]PSMA-11, gallium-68 radiolabelled Glu-urea-Lys-HBED-CC (gozetotide or PSMA-11)]", "values": [
      {"measurement": "Radiochemical Purity (iTLC) Free and Colloidal Ga-68 (%)", "setting": "[1]", "value": 0, "unit": "%"},
      {"measurement": "Radiochemical Purity (iTLC) Ga-68 PSMA-11 (%)", "setting": "[1]", "value": 100, "unit": "%"},
      {"measurement": "Radiochemical Purity (iTLC) Free and Colloidal Ga-68 (%)", "setting": "[2]", "value": 0, "unit": "%"},
      {"measurement": "Radiochemical Purity (iTLC) Ga-68 PSMA-11 (%)", "setting": "[2]", "value": 100, "unit": "%"},
      {"measurement": "Radiochemical Purity (iTLC) Free and Colloidal Ga-68 (%)", "setting": "[3]", "value": "C (C = conforms to specifications)"},
      {"measurement": "Radiochemical Purity (iTLC) Ga-68 PSMA-11 (%)", "setting": "[3]", "value": "C (C = conforms to specifications)"},
      {"measurement": "Radiochemical Purity (iTLC) Free and Colloidal Ga-68 (%)", "setting": "[4]", "value": "C (C = conforms to specifications)"},
      {"measurement": "Radiochemical Purity (iTLC) Ga-68 PSMA-11 (%)", "setting": "[4]", "value": "C (C = conforms to specifications)"},
      {"measurement": "Radiochemical Purity (iTLC) Free and Colloidal Ga-68 (%)", "setting": "[5]", "value": 0, "unit": "%"},
      {"measurement": "Radiochemical Purity (iTLC) Ga-68 PSMA-11 (%)", "setting": "[5]", "value": 100, "unit": "%"},
      {"measurement": "Radiochemical Purity (iTLC) Free and Colloidal Ga-68 (%)", "setting": "[6]", "value": 0, "unit": "%"},
      {"measurement": "Radiochemical Purity (iTLC) Ga-68 PSMA-11 (%)", "setting": "[6]", "value": 100, "unit": "%"},
      {"measurement": "Radiochemical Purity (iTLC) Free and Colloidal Ga-68 (%)", "setting": "[7]", "value": "C (C = conforms to specifications)"},
      {"measurement": "Radiochemical Purity (iTLC) Ga-68 PSMA-11 (%)", "setting": "[7]", "value": "C (C = conforms to specifications)"},
      {"measurement": "Radiochemical Purity (iTLC) Free and Colloidal Ga-68 (%)", "setting": "[8]", "value": "C (C = conforms to specifications)"},
      {"measurement": "Radiochemical Purity (iTLC) Ga-68 PSMA-11 (%)", "setting": "[8]", "value": "C (C = conforms to specifications)"},
      {"measurement": "Radiochemical Purity (iTLC) Free and Colloidal Ga-68 (%)", "setting": "[9]", "value": 0, "unit": "%"},
      {"measurement": "Radiochemical Purity (iTLC) Ga-68 PSMA-11 (%)", "setting": "[9]", "value": 100, "unit": "%"},
      {"measurement": "Radiochemical Purity (iTLC) Free and Colloidal Ga-68 (%)", "setting": "[10]", "value": 0, "unit": "%"},
      {"measurement": "Radiochemical Purity (iTLC) Ga-68 PSMA-11 (%)", "setting": "[10]", "value": 100, "unit": "%"},
      {"measurement": "Radiochemical Purity (iTLC) Free and Colloidal Ga-68 (%)", "setting": "[11]", "value": "C (C = conforms to specifications)"},
      {"measurement": "Radiochemical Purity (iTLC) Ga-68 PSMA-11 (%)", "setting": "[11]", "value": "C (C = conforms to specifications)"},
      {"measurement": "Radiochemical Purity (iTLC) Free and Colloidal Ga-68 (%)", "setting": "[12]", "value": "C (C = conforms to specifications)"},
      {"measurement": "Radiochemical Purity (iTLC) Ga-68 PSMA-11 (%)", "setting": "[12]", "value": "C (C = conforms to specifications)"},
      {"measurement": "Radiochemical Purity (iTLC) Free and Colloidal Ga-68 (%)", "setting": "[13]", "value": 0, "unit": "%"},
      {"measurement": "Radiochemical Purity (iTLC) Ga-68 PSMA-11 (%)", "setting": "[13]", "value": 100, "unit": "%"},
      {"measurement": "Radiochemical Purity (iTLC) Free and Colloidal Ga-68 (%)", "setting": "[14]", "value": 0, "unit": "%"},
      {"measurement": "Radiochemical Purity (iTLC) Ga-68 PSMA-11 (%)", "setting": "[14]", "value": 100, "unit": "%"},
      {"measurement": "Radiochemical Purity (iTLC) Free and Colloidal Ga-68 (%)", "setting": "[15]", "value": "C (C = conforms to specifications)"},
      {"measurement": "Radiochemical Purity (iTLC) Ga-68 PSMA-11 (%)", "setting": "[15]", "value": "C (C = conforms to specifications)"},
      {"measurement": "Radiochemical Purity (iTLC) Free and Colloidal Ga-68 (%)", "setting": "[16]", "value": "C (C = conforms to specifications)"},
      {"measurement": "Radiochemical Purity (iTLC) Ga-68 PSMA-11 (%)", "setting": "[16]", "value": "C (C = conforms to specifications)"},
      {"measurement": "Radiochemical Purity (iTLC) Free and Colloidal Ga-68 (%)", "setting": "[17]", "value": 0, "unit": "%"},
      {"measurement": "Radiochemical Purity (iTLC) Ga-68 PSMA-11 (%)", "setting": "[17]", "value": 100, "unit": "%"},
      {"measurement": "Radiochemical Purity (iTLC) Free and Colloidal Ga-68 (%)", "setting": "[18]", "value": 0, "unit": "%"},
      {"measurement": "Radiochemical Purity (iTLC) Ga-68 PSMA-11 (%)", "setting": "[18]", "value": 100, "unit": "%"},
      {"measurement": "Radiochemical Purity (iTLC) Free and Colloidal Ga-68 (%)", "setting": "[19]", "value": "C (C = conforms to specifications)"},
      {"measurement": "Radiochemical Purity (iTLC) Ga-68 PSMA-11 (%)", "setting": "[19]", "value": "C (C = conforms to specifications)"},
      {"measurement": "Radiochemical Purity (iTLC) Free and Colloidal Ga-68 (%)", "setting": "[20]", "value": "C (C = conforms to specifications)"},
      {"measurement": "Radiochemical Purity (iTLC) Ga-68 PSMA-11 (%)", "setting": "[20]", "value": "C (C = conforms to specifications)"},
      {"measurement": "Radiochemical Purity (iTLC) Free and Colloidal Ga-68 (%)", "setting": "15 mg ascorbic acid, 10.0-18.4 mCi, 0.95-1.77 mCi/mL, 1 × EZAG GalliaPharm, 2 × IRE Galli Eo, average of 3, T0", "value": 0, "unit": "%"}
    ]}
  ]
}
